Reference: patent US20260285857A1, “BICYCLIC AND HETEROCYCLIC AMIDE COMPOUNDS” (priority 2024, published 2026)

System: immunoglobulin light chain protein WIL-FL T46L
Test: Differential scanning fluorimetry (thermal shift) assay
Type: binding
Details: temperature shift [Tm]compound-[Tm]vehicle, recombinant WIL-FL T46L

Row | SMILES | DSF (Table A) | DSF (Table B)
1 | Cc1cc(N2CC[C@](C)(c3ccccc3)C2)cn2nc(C34CC(C(N)=O)(CO3)C4)nc12 [Compound 55] | ***** (>2.5° C.=*****) | –
2 | Cc1cc(N2CC[C@](C)(c3ccccc3)C2)cn2nc(C34CC(N(C)C)(CO3)C4CO)nc12 (stereo partly drawn) [Compound 50] | ***** (>2.5° C.=*****) | –
3 | Cc1cc(N2CC[C@](C)(c3ccccc3)C2)cn2nc(C34CC(CO3)C4NC3(C#N)CC3)nc12 (stereo partly drawn) [Compound 530, 1-((1-(8-methyl-6-((R)-3-methyl-3-phenylpyrrolidin-1-yl)-[1,2,4]triazolo[1,5-a]pyridin-2-yl)-2-oxabicyclo[2.1.1]hexan-5-yl)amino)cyclopropane-1-carbonitrile] | – | ***** (>2.5° C.=*****)
4 | Cc1cc(N2CC[C@](C)(c3ccccc3)C2)cn2nc(C34CC(CO)(CO3)C4C(N)=O)nc12 (stereo partly drawn) [Compound 42] | ***** (>2.5° C.=*****) | –
5 | C[C@]1(c2ccccc2)CCN(c2cc(CO)c3nc(C45CC(CO4)C5c4ncn[nH]4)nn3c2)C1 (stereo partly drawn) [Compound 479] | – | ***** (>2.5° C.=*****)
6 | Cc1ccc([C@@]2(C)CCN(c3cc(C)c4nc(C(=O)N5C[C@@H]6CN(c7cccc(C(=O)O)n7)C[C@@H]6C5)nn4c3)C2)cc1 [Compound 414] | ***** (>2.5° C.=*****) | –
7 | CNC(=O)c1cn2cc(N3CC[C@](C)(c4ccccc4)C3)cc(C)c2n1 [Compound 434] | ***** (>2.5° C.=*****) | –
8 | Cc1cc(N2CC[C@](C)(c3ccccc3)C2)cn2nc(C(=O)N3CCC4(CCN(c5nc(C(=O)O)n[nH]5)C4)C3)nc12 (stereo partly drawn) [Compound 235] | ***** (>2.5° C.=*****) | –
9 | Cc1cc(N2CC[C@](C)(c3ccccc3)C2)cn2nc(C(=O)NC34CCC(C(=O)O)(C3)OC4)nc12 (stereo partly drawn) [Compound 181] | ***** (>2.5° C.=*****) | –
10 | Cc1cc(N2CC[C@](C)(c3ccccc3)C2)cn2nc(C34CC(CO3)C4CN3CC4C(C3)C4C(=O)O)nc12 (stereo partly drawn) [Compound 506, 3-((1-(8-methyl-6-((R)-3-methyl-3-phenylpyrrolidin-1-yl)-[1,2,4]triazolo[1,5-a]pyridin-2-yl)-2-oxabicyclo[2.1.1]hexan-5-yl)methyl)-3-azabicyclo[3.1.0]hexane-6-carboxylic acid] | – | ***** (>2.5° C.=*****)
11 | Cc1cc(N2CC[C@](C)(c3ccccc3)C2)cc2nc(C(=O)N3CC[C@@]4(CCN(c5cccc(C(=O)O)n5)C4)C3)oc12 [Compound 756, 6-[(5R)-2-[7-methyl-5-[(3R)-3-methyl-3-phenyl-pyrrolidin-1-yl]-1,3-benzoxazole-2-carbonyl]-2,7-diazaspiro[4.4]nonan-7-yl]pyridine-2-carboxylic acid] | – | **** (>1.5-2.5° C.=****)
12 | Cc1cc(N2CC[C@](C)(c3ccccc3)C2)cn2nc(C(=O)N3CCC4(COCC(C(=O)O)O4)C3)nc12 (stereo partly drawn) [Compound 598] | – | ***** (>2.5° C.=*****)
13 | Cc1cc(N2CCOC(C)(c3ccccc3)C2)cn2nc(C(=O)N3CC4CN(c5cccc(C(=O)O)n5)CC4C3)nc12 (stereo not drawn) [Compound 432] | * (0-0.5° C.=*) | –
14 | Cc1cc(N2CC[C@](C)(c3ccccc3)C2)cn2nc(C(=O)N3CC[C@@]4(CCN(C(=O)C5CC56CC(C(=O)O)C6)C4)C3)nc12 (stereo partly drawn) [Compound 734] | – | ***** (>2.5° C.=*****)
15 | Cc1cc(N2CC[C@](C)(c3ccccc3)C2)cn2nc(C(=O)N[C@@H]3CCC[C@@H]3O)nc12 [Compound 142] | ***** (>2.5° C.=*****) | –
16 | Cc1cc(N2CC[C@](C)(c3ccccc3)C2)cn2nc(C34CC(CO)(CO3)C4C(=O)NCC(C)(C)C(=O)O)nc12 (stereo partly drawn) [Compound 569, 3-[[4-(hydroxymethyl)-1-[8-methyl-6-[(3R)-3-methyl-3-phenyl-pyrrolidin-1-yl]-[1,2,4]triazolo[1,5-a]pyridin-2-yl]-2-oxabicyclo[2.1.1]hexane-5-carbonyl]amino]-2,2-dimethyl-propanoic acid] | – | **** (>1.5-2.5° C.=****)
17 | CCC(=O)NC12CC(C)(C1)OC2c1nc2c(C)cc(N3CC[C@](C)(c4ccccc4)C3)cn2n1 (stereo partly drawn) [Compound 475, N-[1-methyl-3-[8-methyl-6-[(3R)-3-methyl-3-phenyl-pyrrolidin-1-yl]-[1,2,4]triazolo[1,5-a]pyridin-2-yl]-2-oxabicyclo[2.1.1]hexan-4-yl]propanamide] | – | ***** (>2.5° C.=*****)
18 | Cc1cc(N2CC[C@](C)(c3ccccc3)C2)cn2nc(C(=O)N3CCOCC34CN(c3cccc(C(=O)O)n3)C4)nc12 [Compound 259] | ***** (>2.5° C.=*****) | –
19 | Cc1cc(OC[C@H](C)c2ccccc2)cn2nc(C(=O)N3CCC(C)(O)C3)nc12 (stereo partly drawn) [Compound 316] | **** (>1.5-2.5° C.=****) | –
20 | Cc1cc(N2CC[C@](C)(c3ccccc3)C2)cn2nc(C(=O)N3CC[C@@]4(CCN(C5CCC(C(=O)O)CC5)C4)C3)nc12 (stereo partly drawn) [Compound 376] | ***** (>2.5° C.=*****) | –
21 | Cc1cc(N2CC[C@](C)(c3ccccc3)C2)cn2nc(C(=O)NC34COC(CO)(C3)C4)nc12 [Compound 173] | ***** (>2.5° C.=*****) | –
22 | Cc1cc(N2CC[C@](C)(c3ccccc3)C2)cn2nc(C(=O)N3CC[C@@]4(CCN(C(=O)C56COC(C(=O)O)(C5)C6)C4)C3)nc12 [Compound 726] | – | ***** (>2.5° C.=*****)
23 | Cc1cc(N2CC[C@](C)(c3ccccc3)C2)cn2nc(C34CC(CO3)C4Cn3ncc(CO)n3)nc12 (stereo partly drawn) [Compound 482] | – | ***** (>2.5° C.=*****)

Row | SMILES | DSF (Table A) | DSF (Table B)
24 | Cc1cc(N2CC[C@](C)(c3ccccc3)C2)cn2nc(C(=O)N3CC[C@@]4(CCN(c5cc(C(=O)O)ccn5)C4)C3)nc12 [Compound 714] | – | ***** (>2.5° C.=*****)
25 | Cc1cc(N2CC[C@](C)(c3ccccc3)C2)cn2nc(C(=O)NC3CCC(O)(c4cccc(C(=O)O)n4)CC3)nc12 (stereo partly drawn) [Compound 269] | ***** (>2.5° C.=*****) | –
26 | Cc1cc(OC[C@H](C)c2ccccc2)cn2nc(C(=O)NC3CCN(c4cccc(C(=O)O)n4)CC3)nc12 [Compound 307] | ***** (>2.5° C.=*****) | –
27 | Cc1cc(OC[C@H](C)c2ccccc2)cn2nc(C(=O)NC3CCN(c4ccnc(C(=O)O)c4)C3)nc12 (stereo partly drawn) [Compound 321] | ***** (>2.5° C.=*****) | –
28 | Cc1cc(OC[C@H](C)c2cccc(F)c2)cn2nc(C(=O)N3CC[C@@](C)(O)C3)nc12 [Compound 309] | **** (>1.5-2.5° C.=****) | –
29 | Cc1cc(N2CC[C@](C)(c3ccccc3)C2)cn2nc(C(=O)NCC34COC(C(=O)O)(C3)C4)nc12 [Compound 209] | ***** (>2.5° C.=*****) | –
30 | Cc1cc(N2CC[C@](C)(c3ccccc3)C2)cn2nc(C(=O)N3CC[C@@]4(CCN(C(=O)C5COC(C(=O)O)C5)C4)C3)nc12 (stereo partly drawn) [Compound 672] | – | ***** (>2.5° C.=*****)
31 | COC(=O)c1cccc(N2C[C@H]3CN(C(=S)c4nc5c(C)cc(N6CCC(C)(c7nnc(C)s7)C6)cn5n4)C[C@H]3C2)n1 (stereo partly drawn) [Compound 38, methyl 6-[5-[8-methyl-6-[3-methyl-3-(5-methyl-1,3,4-thiadiazol-2-yl)pyrrolidin-1-yl]-[1,2,4]triazolo[1,5-a]pyridine-2-carbothioyl]-1,3,3a, 4,6,6a-hexahydropyrrolo[3,4-c]pyrrol-2-yl]pyridine-2-carboxylate] | * (0-0.5° C.=*) | –
32 | Cc1cc(N2CC[C@](C)(c3ccc(Cl)c(F)c3)C2)cn2nc(C(=O)N3CC[C@@]4(CCN(c5cccc(C(=O)O)n5)C4)C3)nc12 [Compound 751] | – | ***** (>2.5° C.=*****)
33 | CNC(=O)c1nc2c(C)cc(N3CCC(C)(c4ncco4)C3)cn2n1 (stereo not drawn) [Compound 14, N,8-dimethyl-6-(3-methyl-3-(oxazol-2-yl)pyrrolidin-1-yl)-[1,2,4]triazolo[1,5-a]pyridine-2-carboxamide] | ** (>0.5-1 °C =**) | –
34 | Cc1cc(N2CC[C@](C)(c3ccccc3)C2)cn2nc(C(=O)NCC(C)(C)C(=O)O)nc12 [Compound 136] | ***** (>2.5° C.=*****) | –
35 | Cc1cc(N2CC[C@@](C)(n3ccc(C(F)(F)F)n3)C2)cn2nc(C34CC(N)(CO3)C4)nc12 [Compound 471, (R)-1-(8-methyl-6-(3-methyl-3-(3-(trifluoromethyl)-1H-pyrazol-1-yl)pyrrolidin-1-yl)-[1,2,4]triazolo[1,5-a]pyridin-2-yl)-2-oxabicyclo[2.1.1]hexan-4-amine] | – | **** (>1.5-2.5° C.=****)
36 | Cc1cc(N2CC[C@](C)(c3ccccc3)C2)cn2nc(C34CC(NC(=O)c5cccc(C(=O)O)n5)(CO3)C4)nc12 [Compound 466, (R)-6-((1-(8-methyl-6-(3-methyl-3-phenylpyrrolidin-1-yl)-[1,2,4]triazolo[1,5-a]pyridin-2-yl)-2-oxabicyclo[2.1.1]hexan-4-yl)carbamoyl)picolinic acid] | – | ***** (>2.5° C.=*****)
37 | Cc1cc(N2CCC(C)(c3nccs3)C2)cn2nc(C(=O)N3CC[C@@]4(CCN(c5cccc(C(=O)O)n5)C4)C3)nc12 (stereo partly drawn) [Compound 99] | **** (>1.5-2.5° C.=****) | –
38 | Cc1n[nH]c(C2C3(CNC(=O)C4CC[C@H](C(=O)O)O4)COC2(c2nc4c(C)cc(N5CC[C@](C)(c6ccccc6)C5)cn4n2)C3)n1 (stereo partly drawn) [Compound 590] | – | ***** (>2.5° C.=*****)
39 | Cc1cnc(C2C3COC2(c2nc4c(C)cc(N5CC[C@](C)(c6ccccc6)C5)cn4n2)C3)[nH]1 (stereo partly drawn) [Compound 70] | ***** (>2.5° C.=*****) | –
40 | Cc1nnc(CNC23COC(c4nc5c(C)cc(N6CC[C@](C)(c7ccccc7)C6)cn5n4)(C2)C3)[nH]1 [Compound 56] | ***** (>2.5° C.=*****) | –
41 | Cc1cc(N2CC[C@](C)(c3ccccc3)C2)cn2nc(C(=O)NC3COC4(CCN(c5cccc(C(=O)O)n5)C4)C3)nc12 (stereo partly drawn) [Compound 220] | ***** (>2.5° C.=*****) | –
42 | Cc1cc(N2CC[C@](C)(c3ccccc3)C2)cn2nc(C(=O)NC3CCN(c4cc(C(=O)O)ccn4)CC3)nc12 [Compound 227] | ***** (>2.5° C.=*****) | –
43 | Cc1cc(N2CC[C@](C)(c3ccccc3)C2)cn2nc(C34CC(CO3)C4C(=O)Nc3cccc(C(=O)O)n3)nc12 (stereo partly drawn) [Compound 478] | – | ***** (>2.5° C.=*****)
44 | Cc1cc(N2CC[C@](C)(c3ccccc3)C2)cn2nc(C34CC(CO3)C4N3CC4(COC4)NC3=O)nc12 (stereo partly drawn) [Compound 509, 7-(1-(8-methyl-6-((R)-3-methyl-3-phenylpyrrolidin-1-yl)-[1,2,4]triazolo[1,5-a]pyridin-2-yl)-2-oxabicyclo[2.1.1]hexan-5-yl)-2-oxa-5,7-diazaspiro[3.4]octan-6-one] | – | ***** (>2.5° C.=*****)
45 | Cc1cc(N2CC[C@](C)(c3ccccc3)C2)cn2nc(C(=O)NC3CCN(CC(=O)O)C3)nc12 (stereo partly drawn) [Compound 192] | ***** (>2.5° C.=*****) | –
